Data set [1] concerns Plasmodium falciparum. The experiment in a line: Antiplasmodial activity against synchronized ring stage of chloroquine-sensitive Plasmodium falciparum 3D7 infected in human erythrocytes after 48 hrs by SYBR Green 1 dye based fluorescence assay. The format is functional, organism-based. The conditions noted are these: 3D7, 48 h.
Data set [2] in a line: Selectivity index, ratio of IC50 for mouse L929 cells to IC50 for synchronized ring stage of chloroquine-sensitive Plasmodium falciparum 3D7 infected in human erythrocytes. The note with it: read-out: Ratio IC50. The format is toxicity, cell-based.
A short description of data set [3]: Resistance index, ratio of IC50 for synchronized ring stage of chloroquine-resistant Plasmodium falciparum INDO infected in human erythrocytes to IC50 for synchronized ring stage of chloroquine-sensitive Plasmodium falciparum 3D7 infected in human erythrocytes. The format is functional.
In data set [4] the test system is Plasmodium falciparum. Briefly: Antiplasmodial activity against synchronized ring stage of chloroquine-resistant Plasmodium falciparum INDO infected in human erythrocytes after 48 hrs by SYBR Green 1 dye based fluorescence assay. In kind it is functional, organism-based.
Data set [5] has as its system Plasmodium falciparum. The experiment in a line: Antiplasmodial activity against synchronized ring stage of chloroquine-resistant Plasmodium falciparum Dd2 infected in human erythrocytes after 48 hrs by SYBR Green 1 dye based fluorescence assay. In kind it is functional, organism-based. The conditions noted are these: Dd2, 48 h.
A short description of data set [6]: Selectivity index, ratio of IC50 for human HeLa cells to IC50 for synchronized ring stage of chloroquine-sensitive Plasmodium falciparum 3D7 infected in human erythrocytes. In kind it is toxicity, cell-based. The conditions noted are these: read-out: Ratio IC50.
Data set [7] can be described thus: Resistance index, ratio of IC50 for synchronized ring stage of chloroquine-resistant Plasmodium falciparum Dd2 infected in human erythrocytes to IC50 for synchronized ring stage of chloroquine-sensitive Plasmodium falciparum 3D7 infected in human erythrocytes. In kind it is functional.
The test system of data set [8] is Plasmodium falciparum. The experiment in a line: Potentiation of artemisinin-induced antiplasmodial activity against synchronized ring stage of chloroquine-sensitive Plasmodium falciparum 3D7 infected in human erythrocytes assessed as fold reduction in artemisinin IC50 relative to artemisinin alone. In kind it is functional.

The results in this text go back to ChEMBL document CHEMBL4270535, “Facile synthesis of vanillin-based novel bischalcones identifies one that induces apoptosis and displays synergy with Artemisinin in killing chloroquine resistant Plasmodium falciparum” (Eur J Med Chem, 2018).

Molecules are shown by their SMILES.

For the compound `C=CCOc1ccc(/C=C/C(=O)c2cccc(C(=O)/C=C/c3ccc(OCC=C)c(OC)c3)c2)cc1OC`, the IC50 in the data set on Plasmodium falciparum [1] was more than 50 µM.

In the case of `C=CCOc1c(OC)cc(/C=C/C(=O)c2cc(OC)c(OC)c(OC)c2)cc1-c1cc(/C=C/C(=O)c2cc(OC)c(OC)c(OC)c2)cc(OC)c1OCC=C`, the half-inhibitory concentration (IC50) is 5.5 µM with Plasmodium falciparum [1], 2.2 µM in the data set with Plasmodium falciparum [4] and 1.7 µM in the data set on Plasmodium falciparum [5]. Besides, the selectivity ratio in data set [2] and in data set [6] was more than 36.4 each time. Moreover, the “Ratio IC50” value in data set [3] amounted to 0.4; in data set [7], 0.3.

On to `C=CCOc1c(OC)cc(/C=C/C(=O)c2ccc(Br)cc2)cc1-c1cc(/C=C/C(=O)c2ccc(Br)cc2)cc(OC)c1OCC=C`, for which, in the data set on Plasmodium falciparum [1], the half-maximal inhibitory concentration (IC50) is more than 50 µM.

For `C=CCOc1ccc(C(=O)/C=C/c2cc(OC)c(OCC=C)c(-c3cc(/C=C/C(=O)c4ccc(OCC=C)cc4OCC=C)cc(OC)c3OCC=C)c2)c(OCC=C)c1`, in the data set on Plasmodium falciparum [1], inhibition was half-maximal at 63 µM (IC50).

`C=CCOc1c(OC)cc(/C=C/C(=O)c2ccc3c(c2)OCO3)cc1-c1cc(/C=C/C(=O)c2ccc3c(c2)OCO3)cc(OC)c1OCC=C`: the half-maximal inhibitory concentration (IC50) with Plasmodium falciparum [1] stood at 38 µM; with Plasmodium falciparum [4], 3.8 µM; in the data set with Plasmodium falciparum [5], 3.8 µM. Moreover, the selectivity ratio in data set [2] and in data set [6] was more than 2.6 each time. Further, the “Ratio IC50” value in data set [3] and in data set [7] was 0.1 throughout.

Regarding `C=CCOc1c(OC)cc(/C=C/C(=O)c2ccc(OCCC)cc2)cc1-c1cc(/C=C/C(=O)c2ccc(OCCC)cc2)cc(OC)c1OCC=C`, the half-inhibitory concentration (IC50) is 1.5 µM with Plasmodium falciparum [1], 12.2 µM in the data set with Plasmodium falciparum [4] and 11.6 µM with Plasmodium falciparum [5]. Further, the selectivity ratio in data set [2] and in data set [6] was more than 66.7 throughout. Also, the “Ratio IC50” value is recorded as 8.1 in data set [3] and 7.7 in data set [7].

For the compound `C=CCOc1c(OC)cc(/C=C/C(=O)c2cc3ccccc3oc2=O)cc1-c1cc(/C=C/C(=O)c2cc3ccccc3oc2=O)cc(OC)c1OCC=C`, 18.4 µM corresponded to half-maximal inhibition with Plasmodium falciparum [1] (IC50). This lies in the double-digit micromolar range.

Consider `C=CCOc1c(OC)cc(/C=C/C(=O)c2ccc([N+](=O)[O-])cc2)cc1-c1cc(/C=C/C(=O)c2ccc([N+](=O)[O-])cc2)cc(OC)c1OCC=C`, for which the IC50 is 25 µM in the data set on Plasmodium falciparum [1], 5 µM in the data set with Plasmodium falciparum [4] and 9.3 µM in the data set with Plasmodium falciparum [5]. In addition, the selectivity ratio in data set [2] was 3.2; in data set [6] it was more than 4. Further, the “Ratio IC50” value was determined as 0.2 in data set [3] and 0.37 in data set [7].

Take `C[C@@H]1CC[C@H]2[C@@H](C)C(=O)O[C@@H]3O[C@@]4(C)CC[C@@H]1[C@]32OO4` [ARTEMISININ]: the selectivity ratio in data set [2] and in data set [6] was more than 200 throughout. For the same compound, the “Ratio IC50” value in data set [3] was 1; in the data set with Plasmodium falciparum [8], 1.7 - 3.7; in data set [7] it was 0.87. Moreover, the IC50 came out at 0.015 µM in the data set with Plasmodium falciparum [4] and 0.013 µM in the data set on Plasmodium falciparum [5].

For `C=CCOc1c(OC)cc(/C=C/C(=O)c2ccc(Cl)cc2)cc1-c1cc(/C=C/C(=O)c2ccc(Cl)cc2)cc(OC)c1OCC=C`, in the data set with Plasmodium falciparum [1], the IC50 is more than 50 µM.

Regarding `C=CCOc1ccc(/C=C/C(=O)c2cccc(C(=O)/C=C/c3ccc(OCC=C)c(OCC=C)c3)c2)cc1OCC=C`, the IC50 in the data set with Plasmodium falciparum [1] came to 18 µM; in the data set on Plasmodium falciparum [4] it was 13.7 µM; in the data set on Plasmodium falciparum [5] it was 18.9 µM. For the same compound, the selectivity ratio in data set [2] and in data set [6] was more than 5.6 each time. Further, the “Ratio IC50” value in data set [3] came out at 0.76; in data set [7], 1.05.

As for `C=CCOc1ccc(C(=O)/C=C/c2cc(OC)c(OCC=C)c(-c3cc(/C=C/C(=O)c4ccc(OCC=C)cc4)cc(OC)c3OCC=C)c2)cc1`, the IC50 is 2 µM in the data set on Plasmodium falciparum [1], more than 50 µM in the data set with Plasmodium falciparum [4] and 16.6 µM with Plasmodium falciparum [5]. Besides, the selectivity ratio in data set [2] and in data set [6] was more than 100 throughout. In addition, the “Ratio IC50” value in data set [3] is more than 25; in data set [7], 8.3.

For the compound `COc1cc(/C=C/C(=O)c2ccccc2)cc(-c2cc(/C=C/C(=O)c3ccccc3)cc(OC)c2OC)c1OC`, the 50% inhibitory concentration (IC50) was determined as 9.3 µM in the data set on Plasmodium falciparum [1], 3.7 µM in the data set on Plasmodium falciparum [4] and 3.7 µM with Plasmodium falciparum [5]. The selectivity ratio in data set [2] turned out to be 1.1; in data set [6] it was 12.4. In addition, the “Ratio IC50” value in data set [3] and in data set [7] was 0.4 each time.

Consider `C=CCOc1c(OC)cc(/C=C/C(=O)c2ccccc2)cc1-c1cc(/C=C/C(=O)c2ccccc2)cc(OC)c1OCC=C`, for which the IC50 in the data set with Plasmodium falciparum [1] is 7 µM; in the data set with Plasmodium falciparum [4], 3.5 µM; with Plasmodium falciparum [5], 2.1 µM. Also, the selectivity ratio in data set [2] was 7.1; in data set [6], more than 28.6. Besides, the “Ratio IC50” value in data set [3] is recorded as 0.5; in data set [7], 0.3.

`C=CCOc1c(OC)cc(/C=C/C(=O)c2ccc(OC)cc2)cc1-c1cc(/C=C/C(=O)c2ccc(OC)cc2)cc(OC)c1OCC=C` had an IC50 in the data set on Plasmodium falciparum [1] of 57 µM. This lies in the double-digit micromolar range.

In general, IC50 refers to the concentration that gives 50% inhibition. Read a high IC50 as a need for much substance.
